In patent US20260152468A1, “NOVEL CERAMIDE, PREPARATION METHOD THEREFOR, AND USE THEREOF” (SHENZHEN DIKEMAN BIOTECHNOLOGY CO., LTD., priority 2022, published 2026):

Tests used:
[1] = test system: interleukin-6 (IL-6) cytokine expression in B16 murine melanoma cells; assay: Anti-inflammatory repair efficacy, LPS-induced cell assay (IL-6 ELISA kit); format: cell-based; settings: 1 mmol/L
Procedure: B16 murine melanoma cells were seeded in a 96-well plate at a cell density of 1×10^4 cells/well and placed in an incubator overnight to allow cell adhesion. After 24 hours of incubation, the supernatant was discarded, and 100 μL of samples (i.e., the product obtained in Example 1) at different concentrations diluted with DMEM medium and DMEM culture medium free of the samples as a negative control group were added into the cells, each group in triplicate, followed by incubating under an atmosphere of 5% CO2 expressed by mass fraction at 37° C. At 2 hours after administration, 10 μg/mL LPS was added into both lipopolysaccharide model groups and experimental groups and then co-incubated for 24 hours. After the reaction, 50 μL of the cell supernatant was taken and detected for IL-6 gene expression using a IL-6 ELISA kit.

[2] = test system: AQP3 (aquaporin 3) expression in HaCat cells; assay: Moisturizing efficacy by AQP3 cell assay; format: cell-based, human; settings: 2.5 mmol/L
Procedure: Aquaporin 3 (AQP3) is a transporter factor responsible for transport of water, glycerol and urea on cell membrane, which is mainly expressed in keratinocytes and skin fibroblasts. AQP3 is not only involved in skin hydration and barrier function, but also plays an important role in skin damage, repair and healing, and is an important guarantee for maintenance of normal skin morphology and function.
The HaCat cells were seeded in a 96-well plate at a density of 1×10^4 cells/well and placed in an incubator overnight to allow cell adhesion. After 24 hours of incubation, the supernatant was discarded, and 100 μL of samples (i.e., the product obtained in Example 1) at different concentrations diluted with DMEM medium and DMEM medium free of the samples as a negative control group were added into the plate, each group in triplicate, followed by incubating under an atmosphere of 5% CO2 expressed by mass fraction at 37° C. At 2 hours after administration, […] LPS was added into both lipopolysaccharide model groups and experimental groups and then co-incubated for 24 hours. After completing the reaction, 50 μL of the cell supernatant was taken and detected for the AQP3 gene expression in the cells using a AQP3 assay kit.

[3] = test system: human keratinocytes (HaCaT) cells; assay: Cell proliferation and viability by MTT assay; format: cell-based
Procedure: Cell proliferation and viability as detected by methylthiazolyldiphenyl-tetrazoliun bromide (MTT) assay: human keratinocytes (HaCaT) cells were seed in a 96-well plate at a cell density of 1×10^4 cells/well and placed in an incubator overnight. After 24 hours of incubation, the supernatant was discarded and 100 μL of culture medium containing samples (i.e., the product obtained in Example 1) at different concentrations or blank control (culture medium only) was added into the cells, and incubated for additional 24 hours, followed by removing the culture medium, adding 100 μL of MTT to each well, measuring the absorbance at 450 nm, and calculating the cell viability as: Cell viability=Adosing/Ablank×100%.

ceramide 3
inhibition of expression of IL-6 inflammatory factors, comparison (FIG. 5) [1]: effectively inhibit the expression of IL-6 inflammatory factors | increase of expression level of AQP3, comparison (FIG. 8) [2]: effectively increase the expression level of AQP3

ceramide 3B
abilities of cell healing and tissue-repairing (cell proliferation and viability assay, FIGS. 1-3) [3]: relatively good abilities of cell healing and tissue-repairing | inhibition of expression of IL-6 inflammatory factors, comparison (FIG. 5) [1]: effectively inhibit the expression of IL-6 inflammatory factors | increase of expression level of AQP3, comparison (FIG. 8) [2]: effectively increase the expression level of AQP3
